In ChEMBL document CHEMBL5543147, “Discovery and Characterization of a Novel Cereblon-Recruiting PRC1 Bridged PROTAC Degrader” (J Med Chem, 2024) one finds Activity data, which are given here for 8 compounds.

Active and inactive are the calls of the source. The calls are words filed in the database; no cut-off is given here.

Format in all cases: cell-based
What all share (settings): dose 0.1-10 µM

In test [1] the target is Protein cereblon/Histone-lysine N-methyltransferase EZH2 (Homo sapiens) (UniProt Q15910+Q96SW2). The experiment in a line: PROTAC activity at CRBN/EZH2 in human K562 cells assessed as degradation of EZH2 protein expression at 0.1 to 10 uM incubated for 24 hrs by Western blotting analysis.
Protein cereblon/Histone-lysine N-methyltransferase EZH2 (Homo sapiens), sequence (Q15910 whole entry, looked up): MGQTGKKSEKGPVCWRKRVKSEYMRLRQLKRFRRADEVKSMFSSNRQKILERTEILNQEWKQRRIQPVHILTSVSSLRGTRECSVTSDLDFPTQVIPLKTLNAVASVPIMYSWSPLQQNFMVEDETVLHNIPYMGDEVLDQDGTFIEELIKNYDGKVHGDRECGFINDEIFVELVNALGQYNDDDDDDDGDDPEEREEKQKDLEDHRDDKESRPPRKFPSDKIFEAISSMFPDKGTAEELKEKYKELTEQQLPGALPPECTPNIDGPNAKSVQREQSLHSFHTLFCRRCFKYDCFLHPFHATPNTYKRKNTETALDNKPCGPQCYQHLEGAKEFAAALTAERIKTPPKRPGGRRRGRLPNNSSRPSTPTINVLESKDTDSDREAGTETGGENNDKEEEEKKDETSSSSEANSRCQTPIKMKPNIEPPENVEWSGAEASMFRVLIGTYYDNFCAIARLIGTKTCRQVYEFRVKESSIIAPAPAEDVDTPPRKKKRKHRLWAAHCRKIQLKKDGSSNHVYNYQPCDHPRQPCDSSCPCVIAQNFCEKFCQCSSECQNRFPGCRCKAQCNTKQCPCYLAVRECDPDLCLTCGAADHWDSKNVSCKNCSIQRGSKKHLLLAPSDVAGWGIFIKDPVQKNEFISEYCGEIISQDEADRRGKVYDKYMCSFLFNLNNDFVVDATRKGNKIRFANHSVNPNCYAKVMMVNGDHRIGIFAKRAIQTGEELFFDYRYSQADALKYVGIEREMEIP
Protein cereblon/Histone-lysine N-methyltransferase EZH2 (Homo sapiens), sequence (Q96SW2 whole entry, looked up): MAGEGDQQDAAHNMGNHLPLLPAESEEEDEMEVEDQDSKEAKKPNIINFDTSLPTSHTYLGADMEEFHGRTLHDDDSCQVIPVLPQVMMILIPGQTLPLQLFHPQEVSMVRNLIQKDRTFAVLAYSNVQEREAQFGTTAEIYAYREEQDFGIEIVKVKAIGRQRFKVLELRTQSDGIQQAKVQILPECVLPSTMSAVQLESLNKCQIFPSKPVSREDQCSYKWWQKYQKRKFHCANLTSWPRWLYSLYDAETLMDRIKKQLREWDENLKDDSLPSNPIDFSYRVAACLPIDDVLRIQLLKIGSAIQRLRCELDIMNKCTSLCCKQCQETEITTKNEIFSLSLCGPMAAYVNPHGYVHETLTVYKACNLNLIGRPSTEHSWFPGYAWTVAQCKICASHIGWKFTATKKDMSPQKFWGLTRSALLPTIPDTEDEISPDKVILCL
The target in test [2] is Protein cereblon/Polycomb protein SUZ12 (Homo sapiens) (UniProt Q15022+Q96SW2). The experiment in a line: PROTAC activity at CRBN/SUZ12 in human K562 cells assessed as degradation of SUZ12 protein expression at 0.1 to 10 uM incubated for 24 hrs by Western blotting analysis. (A western blot detects proteins with antibodies after separation by electrophoresis.)
Protein cereblon/Polycomb protein SUZ12 (Homo sapiens), sequence (Q15022 whole entry, looked up): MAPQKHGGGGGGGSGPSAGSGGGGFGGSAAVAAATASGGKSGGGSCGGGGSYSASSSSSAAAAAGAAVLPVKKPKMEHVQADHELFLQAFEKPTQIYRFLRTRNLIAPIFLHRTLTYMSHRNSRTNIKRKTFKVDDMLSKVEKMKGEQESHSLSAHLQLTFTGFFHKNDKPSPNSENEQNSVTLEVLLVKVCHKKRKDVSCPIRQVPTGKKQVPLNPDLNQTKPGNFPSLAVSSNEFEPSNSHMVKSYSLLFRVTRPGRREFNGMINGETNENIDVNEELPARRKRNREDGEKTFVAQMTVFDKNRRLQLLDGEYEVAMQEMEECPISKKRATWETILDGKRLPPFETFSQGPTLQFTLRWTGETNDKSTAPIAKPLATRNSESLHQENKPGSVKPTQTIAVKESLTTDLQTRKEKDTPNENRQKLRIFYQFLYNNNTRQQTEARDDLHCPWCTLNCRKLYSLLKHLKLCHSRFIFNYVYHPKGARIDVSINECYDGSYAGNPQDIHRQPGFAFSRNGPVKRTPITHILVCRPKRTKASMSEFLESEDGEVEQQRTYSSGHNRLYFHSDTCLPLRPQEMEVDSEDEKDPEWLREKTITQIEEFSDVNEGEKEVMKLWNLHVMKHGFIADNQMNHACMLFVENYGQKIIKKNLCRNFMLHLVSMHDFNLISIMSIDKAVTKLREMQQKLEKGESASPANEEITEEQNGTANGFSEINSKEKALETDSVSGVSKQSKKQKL
Protein cereblon/Polycomb protein SUZ12 (Homo sapiens), sequence (Q96SW2 whole entry, looked up): as the sequence (Q96SW2 whole entry, looked up) above
Test [3] relates to K562. The experiment in a line: Induction of PRC2 degradation in human K562 cells assessed as reduction of H3K27me3 chromatin mark at 0.1 to 10 uM incubated for 24 hrs by Western blotting analysis.
For test [4], the system named is K562. Briefly: Induction of PRC1 degradation in human K562 cells assessed as reduction of H2AK119ub chromatin mark at 0.1 to 10 uM incubated for 24 hrs by Western blotting analysis.
Test [5] addresses Protein cereblon/Polycomb complex protein BMI-1 (Homo sapiens, UniProt Q96SW2+P35226). The experiment in a line: PROTAC activity at […] in human K562 cells assessed as degradation of BMI1 protein expression at 0.1 to 10 uM incubated for 24 hrs by Western blotting analysis.
Test [6] concerns the target Protein cereblon/E3 ubiquitin-protein ligase RING2 (Homo sapiens, UniProt Q96SW2+Q99496). The experiment in a line: PROTAC activity at CRBN/RING1B in human K562 cells assessed as degradation of RING1B protein expression at 0.1 to 10 uM incubated for 24 hrs by Western blotting analysis.
Test [7] addresses Protein cereblon/Polycomb protein EED (Homo sapiens, UniProt O75530+Q96SW2). The experiment in a line: PROTAC activity at CRBN/EED in human K562 cells assessed as degradation of EED protein expression at 0.1 to 10 uM incubated for 24 hrs by Western blotting analysis.

Protein cereblon/E3 ubiquitin-protein ligase RING2, sequence (Q96SW2 whole entry): as the sequence (Q96SW2 whole entry, looked up) above
Protein cereblon/E3 ubiquitin-protein ligase RING2, sequence (Q99496 2-336 partner limits assumed): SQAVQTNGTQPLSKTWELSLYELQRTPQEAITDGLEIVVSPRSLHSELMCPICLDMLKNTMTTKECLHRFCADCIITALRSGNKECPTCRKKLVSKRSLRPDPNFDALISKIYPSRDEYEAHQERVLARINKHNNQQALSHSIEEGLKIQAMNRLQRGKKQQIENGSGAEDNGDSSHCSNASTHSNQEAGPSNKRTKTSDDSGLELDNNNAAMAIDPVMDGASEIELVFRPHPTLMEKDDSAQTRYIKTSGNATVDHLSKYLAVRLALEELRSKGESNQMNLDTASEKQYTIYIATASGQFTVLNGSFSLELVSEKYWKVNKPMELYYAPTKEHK
Protein cereblon/Polycomb protein EED, sequence (O75530 2-441 limits assumed): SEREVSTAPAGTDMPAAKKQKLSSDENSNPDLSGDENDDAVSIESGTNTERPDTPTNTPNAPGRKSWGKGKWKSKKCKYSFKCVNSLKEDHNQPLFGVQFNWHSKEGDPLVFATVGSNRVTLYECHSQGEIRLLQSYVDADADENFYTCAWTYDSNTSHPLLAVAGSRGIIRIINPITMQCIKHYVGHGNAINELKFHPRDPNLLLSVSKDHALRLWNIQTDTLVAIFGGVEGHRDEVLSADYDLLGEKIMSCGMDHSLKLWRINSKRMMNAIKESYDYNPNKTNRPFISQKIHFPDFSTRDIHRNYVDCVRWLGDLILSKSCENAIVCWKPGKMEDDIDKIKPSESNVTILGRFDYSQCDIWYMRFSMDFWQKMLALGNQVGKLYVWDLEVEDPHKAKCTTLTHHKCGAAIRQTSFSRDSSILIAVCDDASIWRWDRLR
Protein cereblon/Polycomb protein EED, sequence (Q96SW2 whole entry partner): as the sequence (Q96SW2 whole entry, looked up) above
Protein cereblon/Polycomb complex protein BMI-1, sequence (P35226 whole entry, looked up): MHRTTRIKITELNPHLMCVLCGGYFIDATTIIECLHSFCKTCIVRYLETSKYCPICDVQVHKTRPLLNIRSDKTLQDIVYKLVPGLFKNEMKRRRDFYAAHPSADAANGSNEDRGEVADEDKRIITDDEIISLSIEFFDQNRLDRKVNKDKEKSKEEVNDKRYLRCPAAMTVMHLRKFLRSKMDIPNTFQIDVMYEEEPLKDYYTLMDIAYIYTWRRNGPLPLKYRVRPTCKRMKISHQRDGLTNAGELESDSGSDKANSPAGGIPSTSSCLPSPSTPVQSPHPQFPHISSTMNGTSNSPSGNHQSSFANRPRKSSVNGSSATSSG
Protein cereblon/Polycomb complex protein BMI-1, sequence (Q96SW2 whole entry, looked up): as the sequence (Q96SW2 whole entry, looked up) above

Regarding `O=C(CCNc1cccc2c1C(=O)N(C1CCC(=O)NC1=O)C2=O)NCCCCN1CCN(c2ccc(-c3cnc(NCc4ccco4)n4cnnc34)cc2)CC1` (stereo unspecified), the result (in test [1]; in test [2]; in the test with K562 [3]; with K562 [4]; in test [5]; in test [6]) was inactive. The outcome in test [7] was inactive.
`O=C(CCOCCOCCNc1cccc2c1C(=O)N(C1CCC(=O)NC1=O)C2=O)NCCCCN1CCN(c2ccc(-c3cnc(NCc4ccco4)n4cnnc34)cc2)CC1` (stereo unspecified): the outcome (in test [1]; in test [2]; in the test on K562 [3]; in test [7]) was Active. In addition, the result (with K562 [4]; in test [5]; in test [6]) was inactive.
Consider `O=C(CCOCCOCCOCCOCCNc1cccc2c1C(=O)N(C1CCC(=O)NC1=O)C2=O)NCCCCN1CCN(c2ccc(-c3cnc(NCc4ccco4)n4cnnc34)cc2)CC1` (stereo unspecified), for which the result (in test [1]; in test [2]; in the test on K562 [3]; in the test on K562 [4]; in test [5]; in test [6]) was inactive. Besides, the result in test [7] was inactive.
Regarding `O=C(CCOCCOCCOCCNc1cccc2c1C(=O)N(C1CCC(=O)NC1=O)C2=O)NCCCCN1CCN(c2ccc(-c3cnc(NCc4ccco4)n4cnnc34)cc2)CC1` (stereo unspecified), the result (in test [1]; in test [2]; with K562 [3]; with K562 [4]; in test [5]; in test [6]) was inactive. The outcome in test [7] was inactive.
For `O=C(CCCCNc1cccc2c1C(=O)N(C1CCC(=O)NC1=O)C2=O)NCCCCN1CCN(c2ccc(-c3cnc(NCc4ccco4)n4cnnc34)cc2)CC1` (stereo unspecified), the result (in test [1]; in test [2]; with K562 [3]; in the test with K562 [4]; in test [5]; in test [6]) was inactive. Besides, the outcome in test [7] was inactive.
As to `O=C(CCCNc1cccc2c1C(=O)N(C1CCC(=O)NC1=O)C2=O)NCCCCN1CCN(c2ccc(-c3cnc(NCc4ccco4)n4cnnc34)cc2)CC1` (stereo unspecified), the result (in test [1]; in test [2]; in the test on K562 [3]; in the test with K562 [4]; in test [5]; in test [6]) was inactive. Further, in test [7], the result was inactive.
On to `O=C(CCOCCNc1cccc2c1C(=O)N(C1CCC(=O)NC1=O)C2=O)NCCCCN1CCN(c2ccc(-c3cnc(NCc4ccco4)n4cnnc34)cc2)CC1` (stereo unspecified), for which the result (in test [1]; in test [2]; in the test on K562 [3]; in the test on K562 [4]; in test [5]; in test [6]) was inactive. In test [7], the outcome was inactive.
In the case of `O=C(CCCCCNc1cccc2c1C(=O)N(C1CCC(=O)NC1=O)C2=O)NCCCCN1CCN(c2ccc(-c3cnc(NCc4ccco4)n4cnnc34)cc2)CC1` (stereo unspecified), the outcome (in test [1]; in test [2]; in the test on K562 [3]; in the test with K562 [4]; in test [5]; in test [6]) was inactive. For the same compound, the result in test [7] was inactive.
